These results are taken from ChEMBL document CHEMBL1122072, “Structure-activity correlations of cytochalasins. Novel halogenated and related cytochalasin C and D derivatives” (1982).

For one assay, the system named is Ehrlich. In words: (§1) Evaluated for the inhibition of cell-free gelation in Ehrlich Ascites tumor extracts. In kind it is functional. As to conditions: Mus musculus, read-out: ID50 (the source's name).
For the compound `C=C1C(C)C2C(Cc3ccccc3)NC(=O)C23C(OC(C)=O)/C=C\C(C)(O)C(=O)C(C)C/C=C/C3C1O` (configuration not stated), the IC50 came to 210 nM. The same measure, in the same setting: the value for `CC(=O)OC1/C=C\C(C)(O)C(=O)C(C)C/C=C/C2C(O)C(CI)=C(C)C3C(Cc4ccccc4)NC(=O)C123` (configuration not stated) was 600 nM. The same measure, in the same setting: as for `CC(=O)OC1/C=C\C(C)(O)C(=O)C(C)C/C=C/C2C(O)C(CBr)=C(C)C3C(Cc4ccccc4)NC(=O)C123` (configuration not stated), the figure is 740 nM; as for `CC(=O)OC1/C=C\C(C)(O)C(=O)C(C)C/C=C/C2C(O)C(C)=C(C)C3C(Cc4ccccc4)NC(=O)C123` (configuration not stated), 350 nM; as for `CC(=O)OC1/C=C\C(C)(O)C(=O)C(C)C/C=C/C2C(O)C(CN=[N+]=[N-])=C(C)C3C(Cc4ccccc4)NC(=O)C123` (configuration not stated), 880 nM.

For the next assay, the species on record is Mus musculus. The description is as §1. In kind it is functional.
Details: not given
The compound `CC(=O)OC1/C=C\C(C)(O)C(=O)C(C)C/C=C/C2C(O)C(CC#N)=C(C)C3C(Cc4ccccc4)NC(=O)C123` (configuration not stated) came in with an ID50 of 7700 nM. Still for that read-out and setting: the value for `CC(=O)OC1/C=C\C(C)(O)C(=O)C(C)C/C=C/C2C(O)C(Br)(CBr)C(C)C3C(Cc4ccccc4)NC(=O)C123` (configuration not stated) was 4500 nM.
